Laboratory results from the CheMixHub drug solubility set.

Assay: xn = mol fraction of the nth substance listed, in the solute-free solvent

CC1(C)SC2C(NC(=O)C(NC(=O)N3CCNC3=O)c3ccccc3)C(=O)N2C1C(=O)O (stereo unspecified) + CO + CC(C)O
solubility (g/100 g solution)
Conditions | 278.15 K | 283.15 K | 288.15 K | 293.15 K | 298.15 K | 303.15 K | 308.15 K | 313.15 K | 318.15 K | 323.15 K
x2 = 0.1 | 0.0982 | 0.114 | 0.133 | 0.163 | 0.195 | 0.225 | 0.276 | 0.333 | 0.411 | 0.503
x2 = 0.199 | 0.115 | 0.133 | 0.155 | 0.196 | 0.228 | 0.289 | 0.344 | 0.425 | 0.516 | 0.639
x2 = 0.3 | 0.139 | 0.156 | 0.188 | 0.229 | 0.277 | 0.331 | 0.4 | 0.501 | 0.611 | 0.735
x2 = 0.4 | 0.156 | 0.173 | 0.202 | 0.247 | 0.299 | 0.361 | 0.455 | 0.551 | 0.673 | 0.832
x2 = 0.497 | 0.165 | 0.186 | 0.227 | 0.266 | 0.323 | 0.394 | 0.504 | 0.618 | 0.749 | 0.926
x2 = 0.6 | 0.186 | 0.22 | 0.255 | 0.298 | 0.374 | 0.448 | 0.55 | 0.678 | 0.811 | 0.994
x2 = 0.7 | 0.215 | 0.243 | 0.295 | 0.353 | 0.42 | 0.494 | 0.625 | 0.742 | 0.889 | 1.13
x2 = 0.8 | 0.251 | 0.297 | 0.35 | 0.43 | 0.49 | 0.584 | 0.732 | 0.868 | 1.09 | 1.34
x2 = 0.9 | 0.297 | 0.368 | 0.427 | 0.507 | 0.602 | 0.722 | 0.92 | 1.14 | 1.37 | 1.68

CC(=O)Nc1ccc(OC(=O)c2ccccc2OC(C)=O)cc1 + CC(C)O + O
solubility (g/100 g solution)
Conditions | 278.15 K | 283.15 K | 288.15 K | 293.15 K | 298.15 K | 303.15 K | 308.15 K | 313.15 K | 318.15 K
x2 = 0.03225 | 0.00278 | 0.00407 | 0.0057 | 0.00819 | 0.0115 | 0.0161 | 0.0217 | 0.0296 | 0.0399
x2 = 0.06974 | 0.0072 | 0.0102 | 0.0142 | 0.0195 | 0.0268 | 0.0367 | 0.0481 | 0.0636 | 0.0846
x2 = 0.1139 | 0.015 | 0.0212 | 0.0289 | 0.0402 | 0.0537 | 0.0718 | 0.0958 | 0.126 | 0.162
x2 = 0.1666 | 0.0246 | 0.0342 | 0.0466 | 0.0633 | 0.0855 | 0.114 | 0.148 | 0.195 | 0.252
x2 = 0.2307 | 0.0358 | 0.0489 | 0.0678 | 0.0921 | 0.124 | 0.165 | 0.217 | 0.285 | 0.371
x2 = 0.3103 | 0.0475 | 0.0662 | 0.0897 | 0.123 | 0.163 | 0.215 | 0.29 | 0.374 | 0.488
x2 = 0.4117 | 0.0571 | 0.0787 | 0.109 | 0.148 | 0.197 | 0.26 | 0.341 | 0.445 | 0.574
x2 = 0.5454 | 0.0663 | 0.0911 | 0.125 | 0.167 | 0.221 | 0.295 | 0.381 | 0.494 | 0.642
x2 = 0.7297 | 0.0717 | 0.097 | 0.131 | 0.177 | 0.239 | 0.315 | 0.412 | 0.525 | 0.68
